In ChEMBL document CHEMBL1122305, “Adriamycin analogues. Preparation and biological evaluation of some novel 14-thiaadriamycins” (1983):

How the values were obtained:
CCRF-CEM = experiment: In vitro growth inhibition against CCRF-CEM (human lymphoblastic leukemic) cell line.; assay type: functional; conditions: read-out: ID50 (the source's name)
L1210 [1] = experiment: Percent increase in life span relative to untreated controls in murine L1210 leukemia infected B6D2F1J male mice at 50 mg/kg optimal dose; assay type: functional; conditions: Mus musculus
L1210 [2] = experiment: Percent increase in life span relative to untreated controls in murine L1210 leukemia infected B6D2F1J male mice at 10.13 mg/kg optimal dose; assay type: functional; conditions: Mus musculus
L1210 [3] = experiment: Percent increase in life span relative to untreated controls in murine L1210 leukemia infected B6D2F1J male mice at […] optimal dose; assay type: functional, Mus musculus
L1210 [4] = experiment: Percent increase in life span relative to untreated controls in murine L1210 leukemia infected B6D2F1J male mice at 60 mg/kg optimal dose; assay type: functional; conditions: Mus musculus
L1210 [5] = experiment: Percent increase in life span relative to untreated controls in murine L1210 leukemia infected B6D2F1J male mice at 30 mg/kg optimal dose; assay type: functional; conditions: Mus musculus
L1210 [6] = experiment: Percent increase in life span relative to untreated controls in murine L1210 leukemia infected B6D2F1J male mice at 101.25 mg/kg optimal dose; assay type: functional; conditions: Mus musculus
L1210 [7] = experiment: Percent increase in life span relative to untreated controls in murine L1210 leukemia infected B6D2F1J male mice at 4 mg/kg optimal dose; assay type: functional; conditions: Mus musculus

Structure (SMILES)	IC50 (CCRF-CEM) [µM]	other results
CCCCC(=O)OCC(=O)[C@]1(O)Cc2c(O)c3c(c(O)c2[C@@H](OC2CC(NC(=O)C(F)(F)F)C(O)C(C)O2)C1)C(=O)c1c(OC)cccc1C3=O (stereo not given in full)	0.24	ILS at 50 mg/kg (L1210 [1]): > 455%
CCCCCSCC(=O)[C@]1(O)Cc2c(O)c3c(c(O)c2[C@@H](OC2CC(N)C(O)C(C)O2)C1)C(=O)c1c(OC)cccc1C3=O (stereo not given in full)	0.95	ILS at 10.13 mg/kg (L1210 [2]): 33%
COc1cccc2c1C(=O)c1c(O)c3c(c(O)c1C2=O)C[C@@](O)(C(=O)CSCCSCC(=O)[C@]1(O)Cc2c(O)c4c(c(O)c2[C@H](OC2CC(N)C(O)C(C)O2)C1)C(=O)c1c(OC)cccc1C4=O)C[C@@H]3OC1CC(N)C(O)C(C)O1 (stereo not given in full)	1.06	
COc1cccc2c1C(=O)c1c(O)c3c(c(O)c1C2=O)C[C@@](O)(C(=O)CSCCCSCC(=O)[C@]1(O)Cc2c(O)c4c(c(O)c2[C@@H](OC2CC(N)C(O)C(C)O2)C1)C(=O)c1c(OC)cccc1C4=O)C[C@@H]3OC1CC(N)C(O)C(C)O1 (stereo not given in full)	0.83	
CCOC(=O)CSCC(=O)[C@]1(O)Cc2c(O)c3c(c(O)c2[C@@H](OC2CC(NC(=O)C(F)(F)F)C(O)C(C)O2)C1)C(=O)c1c(OC)cccc1C3=O (stereo not given in full)	5.33	ILS (L1210 [3]): 0%
CCCCSCC(=O)[C@]1(O)Cc2c(O)c3c(c(O)c2[C@@H](OC2CC(NC(=O)C(F)(F)F)C(O)C(C)O2)C1)C(=O)c1c(OC)cccc1C3=O (stereo not given in full)	5.62	ILS (L1210 [3]): 0%
COc1cccc2c1C(=O)c1c(O)c3c(c(O)c1C2=O)C[C@@](O)(C(=O)C[Se]c1ccccc1)C[C@@H]3OC1CC(NC(=O)C(F)(F)F)C(O)C(C)O1 (stereo not given in full)	2.8	ILS at 60 mg/kg (L1210 [4]): 66%
COc1cccc2c1C(=O)c1c(O)c3c(c(O)c1C2=O)C[C@@](O)(C(=O)CSCCCCCCCCCSCC(=O)[C@]1(O)Cc2c(O)c4c(c(O)c2[C@H](OC2CC(N)C(O)C(C)O2)C1)C(=O)c1c(OC)cccc1C4=O)C[C@@H]3OC1CC(N)C(O)C(C)O1 (stereo not given in full)	1.23	
CCOC(=O)CSCC(=O)[C@]1(O)Cc2c(O)c3c(c(O)c2[C@@H](OC2CC(N)C(O)C(C)O2)C1)C(=O)c1c(OC)cccc1C3=O (stereo not given in full)	0.23	ILS at 30 mg/kg (L1210 [5]): 50%
CCCCSCC(=O)[C@]1(O)Cc2c(O)c3c(c(O)c2[C@@H](OC2CC(N)C(O)C(C)O2)C1)C(=O)c1c(OC)cccc1C3=O (stereo not given in full)	0.25	ILS at 10.13 mg/kg (L1210 [2]): 33%
CCCCCCCCCCCCSCC(=O)[C@]1(O)Cc2c(O)c3c(c(O)c2[C@@H](OC2CC(NC(=O)C(F)(F)F)C(O)C(C)O2)C1)C(=O)c1c(OC)cccc1C3=O (stereo not given in full)	> 15	ILS (L1210 [3]): 0%
CCCCCCCCCCCCSCC(=O)[C@]1(O)Cc2c(O)c3c(c(O)c2[C@@H](OC2CC(N)C(O)C(C)O2)C1)C(=O)c1c(OC)cccc1C3=O (stereo not given in full)	1.44	ILS at 10.13 mg/kg (L1210 [2]): 11%
CCCCCSCC(=O)[C@]1(O)Cc2c(O)c3c(c(O)c2[C@@H](OC2CC(NC(=O)C(F)(F)F)C(O)C(C)O2)C1)C(=O)c1c(OC)cccc1C3=O (stereo not given in full)	> 13.8	ILS (L1210 [3]): 10%
COc1cccc2c1C(=O)c1c(O)c3c(c(O)c1C2=O)C[C@@](O)(C(=O)CSc1ccccc1)C[C@@H]3OC1CC(NC(=O)C(F)(F)F)C(O)C(C)O1 (stereo not given in full)	> 13.7	ILS at 101.25 mg/kg (L1210 [6]): 10%
COc1cccc2c1C(=O)c1c(O)c3c(c(O)c1C2=O)C[C@@](O)(C(=O)C[Se]c1ccccc1)C[C@@H]3OC1CC(N)C(O)C(C)O1 (stereo not given in full)	0.4	
COc1cccc2c1C(=O)c1c(O)c3c(c(O)c1C2=O)C[C@@](O)(C(=O)CO)C[C@@H]3O[C@H]1C[C@H](N)[C@H](O)[C@H](C)O1 [DOXORUBICIN]	0.066	ILS at 4 mg/kg (L1210 [7]): 50%
COc1cccc2c1C(=O)c1c(O)c3c(c(O)c1C2=O)C[C@@](O)(C(=O)CSc1ccccc1)C[C@@H]3OC1CC(N)C(O)C(C)O1 (stereo not given in full)	0.87	ILS at 10.13 mg/kg (L1210 [2]): 22%
